Read-outs that look alike come from different tables or passages of the source.
How the values were obtained:
[1] = 3-HP preparation (TCI America): behaviour of samples neutralized to pH 7.0; format: physicochemical; conditions: 3-HP from TCI America, ether extracted, neutralized with 10 M NaOH to pH 7.0
Description: 3-HP was obtained from TCI America (Portland, Oreg.). Significant acrylic acid and 2-oxydipropionic contamination was observed via HPLC analysis. Samples were subsequently treated by diethyl ether extraction to remove acrylic acid and a portion of the 2-oxydipropionic contaminants. Samples were then neutralized with 10 M NaOH to a final pH of 7.0. […] The working stock solution was used for the selection and MIC evaluations in this example.
3-HP was obtained from TCI America (Portland, Oreg.). Significant acrylic acid and 2-oxydipropionic contamination was observed via HPLC analysis. Samples were subsequently treated by diethyl ether extraction to remove acrylic acid and a portion of the 2-oxydipropionic contaminants. Samples were then neutralized with 10 M NaOH to a final pH of 7.0. […] The working stock solution was used for the selection, growth rates and MIC evaluations in this example.

E. coli Mach1-T1 = assay: Minimum inhibitory concentration (MIC) of 3-HP, microaerobic, 96 well-plate, MOPS minimal media; format: cell-based, Escherichia coli; conditions: Mach1-T1 with feedback resistant aroH mutant plasmid, MOPS minimal media
Protocol: Overnight cultures of strains were grown in 5 ml LB (with antibiotic where appropriate). A 1 v/v % was used to inoculate a 15 ml conical tube filled to the top with MOPS minimal media and capped. After the cells reached mid exponential phase, the culture was diluted to an OD600 of 0.200. The cells were further diluted 1:20 and a 10 ul aliquot was used to inoculate each well (˜10^4 cells per well).
The minimum inhibitory concentration (MIC) was determined microaerobically in a 96 well-plate format. Overnight cultures of strains were grown in 5 mL LB (with antibiotic where appropriate). A 1% (v/v) inoculum was introduced into a 15 ml culture of MOPS minimal media. After the cells reached mid-exponential phase, the culture was diluted to an OD600 of 0.200. The cells were further diluted 1:20 and a 10 μL aliquot was used to inoculate each well of a 96 well plate (˜10^4 cells per well).

[2] = system: wild-type E. coli BW25113; assay: Toleragram / OD600 / doublings at 3HP 0-50 g/L, E. coli anaerobic; format: cell-based, Escherichia coli; conditions: control E. coli, anaerobic conditions, 24 hours
Protocol: Overnight cultures of wild-type E. coli BW25113 were grown in triplicate in 5 mL standard LB medium. 100 uL of overnight cultures were used to inoculate triplicate 5 mL samples of M9 minimal medium+3HP, containing 47.7 mM Na2HPO4, 22 mM KH2PO4, 8.6 mM NaCl, 18.7 mM NH4Cl, 2 mM MgSO4, 0.1 mM CaCl2, and 0.4% glucose, with 3HP concentrations ranging from 0-50 g/L. Starting OD600 ranged from 0.02-0.08. Cultures were sparged with CO2 for 10 seconds, sealed, and incubated at 37 C for about 24 hours. OD600 was recorded every 1-2 hours during the first 8 hours with a final OD600 recorded at about 24 hours. For each data point the sample was opened, sampled, re-sparged with CO2, and sealed once again. Maximum specific growth rates (μmax) were calculated by determining the optimal fit of exponential trend lines with OD data for the evaluation period. Specific changes in OD600 over approximately 24 hours (Δ24hrOD600) were calculated as the difference in t=24 hr and t=0 optical density, Δ24hrOD600=(ODt=24)−(ODt=0). Specific number of doublings (Nd) were calculated by solving for N in the equation 2^N=(ODt=24)/(ODt=0).

B. subtilis = assay: MIC protocol B. subtilis aerobic (Common Methods, M9 media + glutamate, 24 hours); format: cell-based, Bacillus subtilis; conditions: strain BSX_0003.0 (pWH1520, control), M9 + glu + trp + 1 mM Xylose
Protocol: For MIC evaluations, the final results are expressed in chemical agent concentrations determined by analysis of the stock solution by HPLC (i.e., see Subsection Mb).
The minimum inhibitory concentration (MIC) was determined aerobically in a 96 well-plate format. […] Media supplements were added according to levels reported in the Supplements Table where specified. Overnight cultures of strains were grown in triplicate in 5 mL LB (with antibiotic where appropriate). A 1% (v/v) inoculum was introduced into a 5 ml culture of M9 minimal media+glutamate.

[3] = system: Yeast strains (S288C background); format: cell-based, Saccharomyces cerevisiae
Protocol: The minimum inhibitory concentration (MIC) was determined aerobically in a 96 well-plate format. […] Media supplements were added according to levels reported in the Supplements Table, where specified. Overnight cultures of strains were grown in triplicate in 5 mL SD media with vitamins (Methods in Enzymology vol. 350, page 17 (2002)). A 1% (v/v) inoculum was introduced into a 5 ml culture of SD minimal media without vitamins. After the cells reached mid-exponential phase, the culture was diluted to an OD600 of 0.200. The cells were further diluted 1:5 and a 10 μL aliquot was used to inoculate each well of a 96 well plate (˜10^4 cells per well) to total volume of 100 uL. […] Plates were incubated for 72 hours at 30 C.

O=C(O)CCO [3-HP, 3-hydroxypropionic acid]
concentration above which considerable 3-HP polymerization was observed at neutral pH [1]: > 35 g/L | concentration above which considerable insoluble matter was observed at neutral pH [1]: > 35 g/L | improvement in MIC of 3-HP, cells comprising the aroH mutant vs control (E. coli Mach1-T1): 40% | cell density response to 3-HP compared with aerobic condition [2]: relatively sharper and earlier drop | Avg 24 hr ΔOD600 (B. subtilis): 0.00 | % Increase Over Control ([3]; S288C, SC media, no supplement, versus SD control, aerobic): 33% | % Increase Over Control ([3]; strain YX-022 (pyes2.1-Aro3 pRS425-ILV6) versus control, aerobic): 50% | % Increase Over Control ([3]; strain YX-CJR-010 (pyes2.1-Thr1) versus YX-CJR-001, aerobic): 50% | % Increase Over Control ([3]; strain YX-CJR-014 (pyes2.1-arg2) versus YX-CJR-001, aerobic): 50% | % Increase Over Control ([3]; strain YX-CJR-017 (pyes2.1-Aro7) versus YX-CJR-001, aerobic): 75%

Source: patent publication US9388419B2 (The Regents of the University of Colorado, a body corporate, priority 2009, dated 2016)
